Legend:
active β-catenin = assay: Western blot for active β-catenin in differentiating LCPs; type: cell-based, mouse; conditions: western blot after 4 days of differentiation, relative to untreated control
Method: Western blot analysis. For protein collection, cells were washed twice with PBS and then lysed by lysis buffer (20 mM HEPES, 400 mM NaCl, 1 mM EDTA, 0.1% NP-40 and 10% Glycerol) supplemented with HALT protease and phosphatase inhibitors (Thermo Fisher Scientific, Waltham, MA). Lysates were then centrifuged at 13,000 g for 15 min at 4° C., and each supernatant was collected. Protein concentration was determined using the Pierce BCA Protein Assay Kit (Pierce Biotechnology, Rockford, IL). Proteins within each lysate were separated by SDS-PAGE (Bio-Rad Laboratories, Inc., Hercules, CA) and transferred to polyvinylidene difluoride membranes. After incubation with primary antibody, membranes were washed with Tris-buffered saline with Tween 20 and exposed to an appropriate horseradish peroxidase-conjugated secondary antibody (Santa Cruz Biotechnology, Santa Cruz, CA); immunoblot signals were detected with Pierce ECL Western blotting substrate or ECL plus (Thermo Fisher Scientific, Waltham, MA).
Active canonical Wnt signaling is facilitated by the nuclear translocation of β-catenin, which binds with transcription factors of the Tcf/Lef family to activate transcription. To further validate our RNA-sequencing data, we proceeded to examine the levels of active β-catenin using western blot after pargyline treatment. […] We also analyzed Wnt activity in the treated cells using a Tcf/Lef reporter assay.

Hes1 = assay: qRT-PCR of Hes1 in adult cochlea after noise damage and drug treatment; type: in vivo, mouse; conditions: 3 days after drug treatment of noise-damaged animals
Method: (§1) RNA extraction and PCR. For the LCPs, the organoids were treated with Cell Recovery Solution for at 1 hour and TrypleE for 20 minutes, then frozen in RLT buffer. RNA extractions were performed using the RNeasy Micro Kit (QIAGEN) and cDNA generated using ImProm-II Reverse Transcription Kit (Promega). TaqMan Real-Time PCR was performed in triplicates using the TaqMan Gene Expression Master Mix (ThermoFisher Scientific) on a StepOne Real-Time PCR machine (ThermoFisher Scientific). Ordinary One-way Anova was used to assess statistical significance. A minimum of three biologically distinct samples were analyzed for each condition.
(§2) Round window drug administration. We used four-week-old mice weighing 12-15 g. The animals were anesthetized with ketamine ([…], intraperitoneally [i.p.]) and xylazine ([…], i.p.) prior to surgery. An incision was made posterior to the pinna near the external meatus to expose the otic bulla and subsequently the round window niche. pargyline and CHIR99021 dissolved in DMSO were diluted in polyethylene glycol 400 (Sigma) to obtain final concentrations of 0.1 and 5 mM. This solution (total volume 1 ul) was injected into the round window niche of the left ear. Polyethylene glycol 400 with 10% DMSO was injected into the right ear as a control. Gelfoam was placed on the niche to maintain the solution, and the wound was closed. […]

Atoh1 = assay: qRT-PCR of Atoh1 in adult cochlea after noise damage and drug treatment; type: in vivo, mouse; conditions: deaf adult cochlea relative to the control, 3 days after treatment, p<0.05
Method: as §1, §2

Axin2 = assay: qRT-PCR of Axin2 in adult cochlea after noise damage and drug treatment; type: in vivo, mouse; conditions: 3 days after drug treatment of noise-damaged animals, p<0.05
Method: as §1, §2

[1] = tested on: Lgr5-expressing cochlear progenitors cells (LCPs); assay: Proliferation of Lgr5+ cochlear progenitors (LCPs) in organoid culture; type: cell-based, mouse; conditions: first 10 days in culture, Lgr5-nGFP mice cells, combined with CHIR99021
Method: Isolation and expansion of inner ear Lgr5+ cells. A recently published protocol was used to derive organoids from inner ear stem cells [also referred to as Lgr5+ cochlear progenitors (LCPs) (McLean et al., 2017). Briefly, the organ of Corti was dissected from neonatal mice (postnatal days 2-5) in Hank's balanced salt solution and treated with Cell Recovery Solution (Corning) for 1 hour. The cochlear epithelium was then peeled from the underlying mesenchyme, collected and treated with TrypleE for 20 minutes at 37° C. The single cells were mechanically triturated, filtered ([…] cell strainer) and suspended in a Matrigel (Corning) dome for 3D culture. The cells were seeded in a 24-well plate, specifically at one cochlea per well of a 24-well plate.
For the drug screening experiments, the expanded cells were passaged into a 96 well plate to test varying drug combinations. All experiments were done in triplicate at minimum. Atoh1-nGFP cells were quantified after 10 days in culture. The cell colonies were incubated in Cell Recovery Solution for 1 hour and dissociated into single cells using TrypleE. The total cell number and percentage of GFP+ cells were quantified using fluorescence activated cell sorting (FACS).
We screened a collection of Lsd1 inhibitors over the first 10 days in culture (FIGS. 9A and 9B) to examine their effect on proliferation of LCPs (FIGS. 9C and 9D). […]

Compound | active β-catenin, fold change (active β-catenin) [fold] | Hes1 mRNA level (Hes1) | Atoh1 mRNA level (Atoh1) | Axin2 mRNA level (Axin2) | proliferation of Lgr5 cells (LCP cell division) [1] [%]
Cc1c[nH]c(-c2cnc(NCCNc3ccc(C#N)cn3)nc2-c2ccc(Cl)cc2Cl)n1 [CHIR99021] | 2.95 | reduced levels | significantly elevated | significantly higher levels | –
CCCC(CCC)C(=O)O [valproic acid] | – | – | – | – | 63
